What was measured:
Assay type in all cases: biochemical
MKK1 = MKK1 (Homo sapiens, UniProt Q02750); assay: Protein kinase assay ([γ-32P] ATP), MKK1; details: read-out: Activity of the protein kinase when treated with compound I-1 (% control)
Protocol: (§1) In another set of experiments, the activities of the compounds described herein against various protein kinases were determined according to the methods reported in Hastie et al., Nature Protocols, 2006, 1, 968-971.
(§2) Enzyme dilution buffer. This buffer consisted of 50 mM Tris-HCl, pH 7.5, 0.1 mM EGTA, 1 mg ml^−1 bovine serum albumin and 0.1% (vol/vol) 2-mercaptoethanol.
(§3) 10× concentrated assay buffer. An assay buffer of 500 mM Tris-HCl, pH 7.5, 1 mM EGTA, and 100 mM magnesium acetate was used for assay of a wide variety of protein kinases. In some experiments, other cofactors were included (e.g., calcium ions and calmodulin were included for assay of calcium-calmodulindependent protein kinases).
(§4) 1 mM [γ-^32P] ATP. The specific activity of the [γ-^32P] ATP solution was 1×10^5 to 1×10^6 c.p.m. per nmol depending on what was needed to produce an optimal signal/noise ratio. […] To measure the concentration of ATP, a sample of such a stock solution was diluted to 20 μM, and the absorbance of the diluted sample was measured at 259 nm. The absorbance of a 20-μM stock solution of ATP at 259 nm was about 0.31. […] ATP to produce a radioactivity of 1×10^5 to 1×10^6 c.p.m. per nmol. […]
(§5) 13) Measure radioactivity in the samples by Cerenkov counting (e.g., without liquid scintillation fluid) in a liquid scintillation counter using a “^32P program”. […]

PAK5 = PAK5 (Homo sapiens, UniProt Q9P286); assay: Protein kinase assay ([γ-32P] ATP), PAK5; details: read-out: Activity of the protein kinase when treated with compound I-1 (% control)
Protocol: as §1, §2, §3, §4, §5

PKCa = PKCa (Homo sapiens, UniProt P17252); assay: Protein kinase assay ([γ-32P] ATP), PKCa; details: read-out: Activity of the protein kinase when treated with compound I-1 (% control)
Protocol: as §1, §2, §3, §4, §5

DDR2 = DDR2 (Homo sapiens, UniProt Q16832); assay: Protein kinase assay ([γ-32P] ATP), DDR2; details: read-out: Activity of the protein kinase when treated with compound I-1 (% control)
Protocol: as §1, §2, §3, §4, §5

PAK4 = PAK4 (Homo sapiens, UniProt O96013); assay: Protein kinase assay ([γ-32P] ATP), PAK4; details: read-out: Activity of the protein kinase when treated with compound I-1 (% control)
Protocol: as §1, §2, §3, §4, §5

PHK = assay: Protein kinase assay ([γ-32P] ATP), PHK
Protocol: as §1, §2, §3, §4, §5

JNK2 = JNK2 (Homo sapiens, UniProt P45984); assay: Protein kinase assay ([γ-32P] ATP), JNK2; details: read-out: Activity of the protein kinase when treated with compound I-1 (% control)
Protocol: as §1, §2, §3, §4, §5

AMPK = assay: Protein kinase assay ([γ-32P] ATP), AMPK
Protocol: as §1, §2, §3, §4, §5

ERK1 = ERK1 (Homo sapiens, UniProt P27361); assay: Protein kinase assay ([γ-32P] ATP), ERK1; details: read-out: Activity of the protein kinase when treated with compound I-1 (% control)
Protocol: as §1, §2, §3, §4, §5

BTK = BTK (Homo sapiens, UniProt Q06187); assay: Protein kinase assay ([γ-32P] ATP), BTK; details: read-out: Activity of the protein kinase when treated with compound I-1 (% control)
Protocol: as §1, §2, §3, §4, §5

PKBa = PKBa (Homo sapiens, UniProt P31749); assay: Protein kinase assay ([γ-32P] ATP), PKBa; details: read-out: Activity of the protein kinase when treated with compound I-1 (% control)
Protocol: as §1, §2, §3, §4, §5

HIPK2 = HIPK2 (Homo sapiens, UniProt Q9H2X6); assay: Protein kinase assay ([γ-32P] ATP), HIPK2; details: read-out: Activity of the protein kinase when treated with compound I-1 (% control)
Protocol: as §1, §2, §3, §4, §5

STK33 = STK33 (Homo sapiens, UniProt Q9BYT3); assay: Protein kinase assay ([γ-32P] ATP), STK33; details: read-out: Activity of the protein kinase when treated with compound I-1 (% control)
Protocol: as §1, §2, §3, §4, §5

DAPK1 = DAPK1 (Homo sapiens, UniProt P53355); assay: Protein kinase assay ([γ-32P] ATP), DAPK1; details: read-out: Activity of the protein kinase when treated with compound I-1 (% control)
Protocol: as §1, §2, §3, §4, §5

NEK2a = NEK2a (Homo sapiens, UniProt P51955); assay: Protein kinase assay ([γ-32P] ATP), NEK2a; details: read-out: Activity of the protein kinase when treated with compound I-1 (% control)
Protocol: as §1, §2, §3, §4, §5

CDK9-Cyclin T1 = CDK9-Cyclin T1 (Homo sapiens, UniProt P50750); assay: Protein kinase assay ([γ-32P] ATP), CDK9-Cyclin T1; details: read-out: Activity of the protein kinase when treated with compound I-1 (% control)
Protocol: as §1, §2, §3, §4, §5

ASK1 = ASK1 (Homo sapiens, UniProt Q99683); assay: Protein kinase assay ([γ-32P] ATP), ASK1; details: read-out: Activity of the protein kinase when treated with compound I-1 (% control)
Protocol: as §1, §2, §3, §4, §5

[1] = 0.1 μM of compound I-1, DMSO control = 100%
[2] = 1 μM of compound I-1, DMSO control = 100%

Chain of ASK1 (Q99683 whole entry): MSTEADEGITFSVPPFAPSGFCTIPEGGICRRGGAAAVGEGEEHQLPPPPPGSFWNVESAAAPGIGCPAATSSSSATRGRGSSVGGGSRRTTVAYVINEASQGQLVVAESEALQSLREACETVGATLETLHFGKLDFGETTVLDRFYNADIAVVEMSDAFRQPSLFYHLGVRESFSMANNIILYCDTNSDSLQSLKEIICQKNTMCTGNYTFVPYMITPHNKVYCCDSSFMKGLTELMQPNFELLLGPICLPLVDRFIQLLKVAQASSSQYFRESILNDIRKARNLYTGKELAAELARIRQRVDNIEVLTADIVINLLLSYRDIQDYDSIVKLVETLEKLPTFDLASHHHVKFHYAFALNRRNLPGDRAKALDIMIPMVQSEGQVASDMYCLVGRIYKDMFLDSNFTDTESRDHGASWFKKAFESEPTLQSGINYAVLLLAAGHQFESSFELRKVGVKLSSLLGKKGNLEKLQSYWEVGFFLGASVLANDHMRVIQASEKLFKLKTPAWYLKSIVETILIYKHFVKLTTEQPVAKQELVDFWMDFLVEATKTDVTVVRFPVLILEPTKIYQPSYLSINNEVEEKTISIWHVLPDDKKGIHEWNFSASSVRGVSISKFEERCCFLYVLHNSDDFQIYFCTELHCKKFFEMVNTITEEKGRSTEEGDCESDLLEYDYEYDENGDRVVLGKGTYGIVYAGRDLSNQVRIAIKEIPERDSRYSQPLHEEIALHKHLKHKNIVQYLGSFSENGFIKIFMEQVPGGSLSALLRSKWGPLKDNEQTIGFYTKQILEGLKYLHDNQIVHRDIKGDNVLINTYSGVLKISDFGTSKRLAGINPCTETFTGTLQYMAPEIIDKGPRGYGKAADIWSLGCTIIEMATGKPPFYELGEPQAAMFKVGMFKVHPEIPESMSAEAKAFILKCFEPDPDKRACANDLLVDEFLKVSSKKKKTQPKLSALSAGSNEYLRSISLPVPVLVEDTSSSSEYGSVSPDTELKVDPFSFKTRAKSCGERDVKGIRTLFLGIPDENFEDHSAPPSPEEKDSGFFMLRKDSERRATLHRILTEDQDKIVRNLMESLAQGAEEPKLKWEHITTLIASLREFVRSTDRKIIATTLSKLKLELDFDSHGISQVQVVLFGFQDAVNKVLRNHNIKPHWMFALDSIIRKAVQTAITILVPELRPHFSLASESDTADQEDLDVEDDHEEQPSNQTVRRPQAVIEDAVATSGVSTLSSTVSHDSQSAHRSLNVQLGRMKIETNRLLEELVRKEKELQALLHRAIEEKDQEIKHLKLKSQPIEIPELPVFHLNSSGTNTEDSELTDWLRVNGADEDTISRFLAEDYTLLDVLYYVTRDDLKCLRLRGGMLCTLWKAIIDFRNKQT
Chain of NEK2a (P51955 whole entry): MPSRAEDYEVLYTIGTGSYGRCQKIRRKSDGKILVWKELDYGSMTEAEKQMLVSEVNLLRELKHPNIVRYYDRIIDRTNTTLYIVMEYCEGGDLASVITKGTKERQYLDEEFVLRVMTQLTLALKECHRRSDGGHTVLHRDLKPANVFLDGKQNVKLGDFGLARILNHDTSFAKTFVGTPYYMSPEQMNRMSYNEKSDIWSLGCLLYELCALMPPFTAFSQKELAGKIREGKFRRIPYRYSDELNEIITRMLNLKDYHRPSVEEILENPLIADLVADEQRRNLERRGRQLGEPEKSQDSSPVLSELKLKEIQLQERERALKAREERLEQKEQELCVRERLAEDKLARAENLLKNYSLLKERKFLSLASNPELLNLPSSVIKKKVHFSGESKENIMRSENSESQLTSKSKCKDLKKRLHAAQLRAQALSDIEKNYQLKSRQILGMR
Chain of PAK5 (Q9P286 whole entry): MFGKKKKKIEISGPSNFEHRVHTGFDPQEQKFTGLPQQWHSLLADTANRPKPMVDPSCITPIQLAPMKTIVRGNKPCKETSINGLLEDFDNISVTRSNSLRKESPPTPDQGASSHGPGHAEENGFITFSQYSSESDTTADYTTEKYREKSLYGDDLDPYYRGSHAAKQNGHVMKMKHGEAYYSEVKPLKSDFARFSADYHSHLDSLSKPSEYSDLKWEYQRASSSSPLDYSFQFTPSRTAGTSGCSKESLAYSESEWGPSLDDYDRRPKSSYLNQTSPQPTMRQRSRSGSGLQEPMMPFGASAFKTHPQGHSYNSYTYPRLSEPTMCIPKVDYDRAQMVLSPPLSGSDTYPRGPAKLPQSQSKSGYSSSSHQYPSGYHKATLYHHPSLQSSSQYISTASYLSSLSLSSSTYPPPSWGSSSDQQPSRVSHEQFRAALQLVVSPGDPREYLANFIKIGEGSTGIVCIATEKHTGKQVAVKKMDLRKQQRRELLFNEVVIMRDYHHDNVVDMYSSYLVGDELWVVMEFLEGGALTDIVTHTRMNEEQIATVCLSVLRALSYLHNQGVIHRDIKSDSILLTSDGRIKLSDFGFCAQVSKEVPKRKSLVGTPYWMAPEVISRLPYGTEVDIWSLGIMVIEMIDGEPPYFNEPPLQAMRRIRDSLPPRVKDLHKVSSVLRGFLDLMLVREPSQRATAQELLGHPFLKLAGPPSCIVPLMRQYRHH
Chain of JNK2 (P45984 whole entry): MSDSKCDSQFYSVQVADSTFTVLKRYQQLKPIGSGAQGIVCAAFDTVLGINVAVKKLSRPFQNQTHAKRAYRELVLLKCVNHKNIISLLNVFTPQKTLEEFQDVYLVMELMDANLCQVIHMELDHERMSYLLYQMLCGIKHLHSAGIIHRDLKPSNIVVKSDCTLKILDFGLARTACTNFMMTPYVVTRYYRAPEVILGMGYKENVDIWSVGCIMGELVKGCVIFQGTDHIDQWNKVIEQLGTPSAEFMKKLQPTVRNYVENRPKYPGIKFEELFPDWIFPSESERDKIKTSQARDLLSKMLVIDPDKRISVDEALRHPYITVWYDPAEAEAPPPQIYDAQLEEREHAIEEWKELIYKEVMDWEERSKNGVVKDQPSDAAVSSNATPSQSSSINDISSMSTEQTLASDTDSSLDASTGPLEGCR
Chain of CDK9-Cyclin T1 (P50750 whole entry): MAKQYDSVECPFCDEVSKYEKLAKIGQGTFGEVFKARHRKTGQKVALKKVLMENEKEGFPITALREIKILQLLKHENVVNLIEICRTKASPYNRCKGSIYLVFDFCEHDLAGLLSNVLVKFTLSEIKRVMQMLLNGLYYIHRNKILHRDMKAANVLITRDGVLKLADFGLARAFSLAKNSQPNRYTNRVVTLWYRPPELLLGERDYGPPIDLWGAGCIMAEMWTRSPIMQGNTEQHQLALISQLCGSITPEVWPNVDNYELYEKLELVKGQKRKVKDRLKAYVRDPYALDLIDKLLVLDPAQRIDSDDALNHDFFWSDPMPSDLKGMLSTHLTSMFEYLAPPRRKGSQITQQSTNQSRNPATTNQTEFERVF
Chain of CDK9-Cyclin T1 (O60563 whole entry partner): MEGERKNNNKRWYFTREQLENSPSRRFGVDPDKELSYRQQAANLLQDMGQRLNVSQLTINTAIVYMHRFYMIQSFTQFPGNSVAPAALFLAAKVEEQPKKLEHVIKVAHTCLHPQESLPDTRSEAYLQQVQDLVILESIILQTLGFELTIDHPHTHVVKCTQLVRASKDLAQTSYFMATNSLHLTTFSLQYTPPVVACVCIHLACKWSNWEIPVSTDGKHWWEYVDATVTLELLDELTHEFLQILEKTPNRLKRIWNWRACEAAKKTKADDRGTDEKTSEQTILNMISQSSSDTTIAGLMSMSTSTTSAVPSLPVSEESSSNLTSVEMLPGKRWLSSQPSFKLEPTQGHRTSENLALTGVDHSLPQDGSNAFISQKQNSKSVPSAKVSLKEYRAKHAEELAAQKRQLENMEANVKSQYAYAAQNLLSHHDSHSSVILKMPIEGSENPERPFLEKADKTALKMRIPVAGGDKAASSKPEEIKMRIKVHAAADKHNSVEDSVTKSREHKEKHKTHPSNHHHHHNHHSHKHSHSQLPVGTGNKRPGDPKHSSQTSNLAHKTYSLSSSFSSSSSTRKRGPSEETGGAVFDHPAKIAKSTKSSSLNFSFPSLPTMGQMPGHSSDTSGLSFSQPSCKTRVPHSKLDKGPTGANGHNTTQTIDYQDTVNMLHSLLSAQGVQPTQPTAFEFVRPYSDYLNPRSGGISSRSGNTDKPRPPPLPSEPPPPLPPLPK
Chain of PAK4 (O96013 whole entry): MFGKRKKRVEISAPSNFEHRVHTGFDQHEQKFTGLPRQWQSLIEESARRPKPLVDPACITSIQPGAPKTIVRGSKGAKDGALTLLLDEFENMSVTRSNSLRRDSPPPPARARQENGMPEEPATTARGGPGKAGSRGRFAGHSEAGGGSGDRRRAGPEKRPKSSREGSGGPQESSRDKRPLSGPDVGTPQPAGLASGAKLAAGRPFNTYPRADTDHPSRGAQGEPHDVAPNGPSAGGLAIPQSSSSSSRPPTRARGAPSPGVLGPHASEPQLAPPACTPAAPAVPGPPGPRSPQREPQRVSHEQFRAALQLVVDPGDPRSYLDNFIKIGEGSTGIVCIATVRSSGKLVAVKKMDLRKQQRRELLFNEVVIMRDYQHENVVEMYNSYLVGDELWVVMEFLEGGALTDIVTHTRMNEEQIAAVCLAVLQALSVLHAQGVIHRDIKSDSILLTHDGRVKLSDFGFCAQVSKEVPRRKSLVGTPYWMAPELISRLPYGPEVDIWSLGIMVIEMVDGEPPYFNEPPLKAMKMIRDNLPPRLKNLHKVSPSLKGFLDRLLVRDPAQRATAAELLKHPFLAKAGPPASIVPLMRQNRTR
Chain of MKK1 (Q02750 whole entry): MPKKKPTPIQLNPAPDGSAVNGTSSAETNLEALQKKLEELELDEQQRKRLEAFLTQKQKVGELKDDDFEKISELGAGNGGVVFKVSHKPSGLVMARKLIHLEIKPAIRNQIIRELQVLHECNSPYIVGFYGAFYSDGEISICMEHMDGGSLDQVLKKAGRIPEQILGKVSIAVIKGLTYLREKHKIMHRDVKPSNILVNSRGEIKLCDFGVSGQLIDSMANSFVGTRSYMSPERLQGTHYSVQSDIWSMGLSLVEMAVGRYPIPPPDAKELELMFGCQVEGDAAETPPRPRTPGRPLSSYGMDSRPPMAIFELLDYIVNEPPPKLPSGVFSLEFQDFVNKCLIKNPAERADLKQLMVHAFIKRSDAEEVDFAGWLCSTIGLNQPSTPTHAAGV

Compound `Cc1cccc(C)c1NC(=O)N1C/C=C\COc2cccc(c2)Nc2cc1ncn2` [Compound I-1] has a remaining activity at 0.1 µM (MKK1; [1]) of 96%, a remaining activity at 1 µM (MKK1; [2]) of 81% and a remaining activity at 0.1 µM (PAK5; [1]) of 90%. The remaining activity at 1 µM (PAK5; [2]) was 64%, the remaining activity at 0.1 µM (PKCa; [1]) was 101% and the remaining activity at 1 µM (PKCa; [2]) was 91%. It also gave a remaining activity at 0.1 µM (DDR2; [1]) of 28%, a remaining activity at 1 µM (DDR2; [2]) of 3% and a remaining activity at 0.1 µM (PAK4; [1]) of 100%. For the same compound, the remaining activity at 1 µM (PAK4; [2]) was 78%, the “Activity of the protein kinase when treated with compound I-1 (% control)” value (shortened to “Activity of the protein kinase … (% control)”) (PHK; [1]) was 88 % control and the “Activity of the protein kinase … (% control)” value (PHK; [2]) was 100 % control. The remaining activity at 0.1 µM (JNK2; [1]) was 81%, the remaining activity at 1 µM (JNK2; [2]) was 34% and the “Activity of the protein kinase … (% control)” value (AMPK; [1]) was 96 % control. For the same compound, the “Activity of the protein kinase … (% control)” value (AMPK; [2]) was 91 % control, the remaining activity at 0.1 µM (ERK1; [1]) was 97% and the remaining activity at 1 µM (ERK1; [2]) was 87%. For the same compound, the remaining activity at 0.1 µM (BTK; [1]) was 46%, the remaining activity at 1 µM (BTK; [2]) was 48% and the remaining activity at 0.1 µM (PKBa; [1]) was 99%. For the same compound, the remaining activity at 1 µM (PKBa; [2]) was 86%, the remaining activity at 0.1 µM (HIPK2; [1]) was 110% and the remaining activity at 1 µM (HIPK2; [2]) was 91%. The remaining activity at 0.1 µM (STK33; [1]) was 116%, the remaining activity at 1 µM (STK33; [2]) was 100% and the remaining activity at 0.1 µM (DAPK1; [1]) was 99%. It also gave a remaining activity at 1 µM (DAPK1; [2]) of 85%, a remaining activity at 0.1 µM (NEK2a; [1]) of 97% and a remaining activity at 1 µM (NEK2a; [2]) of 85%. For the same compound, the remaining activity at 0.1 µM (CDK9-Cyclin T1; [1]) was 116%, the remaining activity at 1 µM (CDK9-Cyclin T1; [2]) was 92% and the remaining activity at 0.1 µM (ASK1; [1]) was 117%. For the same compound, the remaining activity at 1 µM (ASK1; [2]) was 96%.

— patent US10457691B2, “Macrocyclic kinase inhibitors and uses thereof” (Dana-Farber Cancer Institute, Inc., priority 2014, dated 2019)
